# Assay results published in patent US20220280594A1, “APPLICATION OF POLYPEPTIDE OR DERIVATIVE THEREOF” (CHENGDU HUITAI BIOMEDICINE CO., LTD., priority 2019, published 2022).
# Ends that are not written are not given here. PEG = not defined here
# Tests used:
# [1] = test system: human pancreatic cancer cells (PANC-1) subcutaneous xenograft; experiment: pancreatic cancer subcutaneous xenograft animal model, intratumoral injection; type: in vivo, mice (BALB/c-nu/nu); settings: PANC-1 xenograft, intratumoral 5 mg/kg once every other day, 25 days; for Weight of tumor (g) (mean ± SD): control 1.2 ± 0.11; for Volume of tumor (mm^3) (mean ± SD): control 1431.72 ± 174.33
# Protocol: Experimental animals: 4-6 weeks old female immunodeficiency mice (BALB/c-nu/nu, Beijing Vital River Laboratory Animal Technology Co., Ltd.).
# Subcutaneous xenograft animal model. The number of cells inoculated subcutaneously vin mice was about 2×10^6/200 μL. When the volume of the subcutaneous tumor was greater than 100 mm^3, the mice were randomly divided into groups and subjected to treatment. When the mass volume of the tumors in model control group reached 2000 mm^3 or the animal dies, the treatment ended. The animals were dissected, the tumors were taken out, and the weight and volume of the tumors were measured. During the period of the entire experiment, the mice were observed and the body weight was measured every other day.
# The method used in the efficacy test on the pancreatic cancer subcutaneous xenograft animal model was as described in Example 5. The pancreatic cancer cells were human pancreatic cancer cells (PANC-1), and the route of administration was intratumoral injection. The experimental groups were model control group and polypeptide or derivative thereof treatment groups (N1-N12). The drug dosage of the N1-N12 treatment group was 5mg/kg, once every other day, and the treatment time was 25 days.
# [2] = test system: human lung cancer cells (A549) subcutaneous xenograft; experiment: lung cancer subcutaneous xenograft animal model, intratumoral injection; type: in vivo, mice (BALB/c-nu/nu); settings: intratumoral 5 mg/kg once every other day, 10 days; for Weight of tumor (g) (mean ± SD): control 1.45 ± 0.15; for Volume of tumor (mm^3) (mean ± SD): control 1269.32 ± 115.39
# In short: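 Female BALB/c-nu/nu mice (4–6 weeks) inoculated subcutaneously with about 2×10^6 A549 cells; treatment started at tumour volume >100 mm^3. Peptides given intratumorally at 5 mg/kg every other day for 10 days (N1–N12) or 20 days (N13–N32); tumour weight and volume measured at dissection.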
# [3] = test system: vimentin; experiment: vimentin expression in SK-HEP-1 cells (ELISA); type: cell-based, human; settings: SK-HEP-1, 10 μM, 24 hours, control group 1.2 ± 0.01
# Protocol: (§1) SK-HEP-1 cells were cultured in vitro, cells in the logarithmic growth phase were collected, and the cells were seeded evenly in a 24-well plate at a density of 1-3×10^5 cells/well. The cells were cultured in a cell incubator for 4-5 h. PBS was added to the control group. PBS containing polypeptide or derivative thereof (N1-N12) was added to the treatment group. The final concentration of the polypeptide or derivative thereof in the well was 10 μM. After incubating for 24 hours, the cells were collected and the total protein was extracted. ELISA was used to detect the content of fibronectin in total protein.
# The experimental method for testing the inhibition on the expression of vimentin in human liver adenocarcinoma cells (SK-HEP-1) by the polypeptide or derivative thereof (N1-N12) was as described in Example 19.
# [4] = test system: human lung cancer cells (A549) subcutaneous xenograft; experiment: lung cancer subcutaneous xenograft animal model, intravenous injection; type: in vivo, mice (BALB/c-nu/nu); settings: intravenous 60 mg/kg once every other day, 20 days; for Weight of tumor (g) (mean ± SD): control 2.53 ± 0.17; for Volume of tumor (mm^3) (mean ± SD): control 3373.26 ± 581.44
# In short: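 Female BALB/c-nu/nu mice (4-6 weeks) inoculated subcutaneously with ~2×10^6 A549 cells; grouped once tumours exceeded 100 mm^3. Peptides given intravenously at 60 mg/kg for 20 days versus model control. Tumour weight and volume measured at dissection; body weight recorded every other day.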
# [5] = test system: human melanoma cells (A375); experiment: scratch assay, migration of A375 cells; type: cell-based; settings: A375, 10 μM, 48 hours; control group 44.03 ± 6.21
# In short: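 Monolayers scratched, washed with PBS and cultured 48 hours in 2% FBS medium with polypeptides N1-N54 at 10 μM or PBS control, three wells per group. Migration rate (%) = (original − current scratch width)/original width×100, from imaged scratch widths.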
# [6] = test system: fibronectin; experiment: fibronectin expression in SK-HEP-1 cells (ELISA); type: cell-based, human; settings: SK-HEP-1, 10 μM, 24 hours, control group 1.62 ± 0.09
# Protocol: as §1
# [7] = effect on coagulation function in mice (ACT); type: in vivo, C57BL/6J mice; settings: 200 mg/kg tail vein once a day until Day 24, blood on Day 25; control group 73.50 ± 7.15
# Protocol: C57BL/6J mice were used as experimental subjects (purchased from Chengdu Dashuo Experimental Animal Co., Ltd., male, weighing 16-17 g). Sterile saline or peptide drugs were injected via the tail vein once a day until Day 24. The mice in the control group were injected with sterile saline, and the mice in the administration groups (N1-N12) were injected with polypeptide drugs (200 mg/kg). There were three experimental animals in each group. On Day 25, the eyeballs were removed and blood ([…]) was taken. The coagulation function of the mice was detected by the Abbott i-STAT blood gas analyzer with the ACT test card.
# [8] = test system: human breast cancer cells (MDA-MB-453); experiment: scratch assay, migration of MDA-MB-453 cells; type: cell-based; settings: MDA-MB-453, 10 μM, 48 hours; control group 32.42 ± 2.04
# In short: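 Confluent MDA-MB-453 monolayers were scratched, then treated with peptide at 10 μM in 2% FBS medium for 48 h, with a PBS control and triplicate wells. Migration rate (%) was taken as (original − current scratch width)/original width ×100 from images.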
Substance,Weight of tumor (g) (mean ± SD) [1],Volume of tumor (mm^3) (mean ± SD) [1],Weight of tumor (g) (mean ± SD) [2],Volume of tumor (mm^3) (mean ± SD) [2],"Relative protein level (mean ± SD, P), vimentin [3]",Weight of tumor (g) (mean ± SD) [4],Volume of tumor (mm^3) (mean ± SD) [4],"Migration rate (%) (mean ± SD, P) [5]","Relative protein level (mean ± SD, P), fibronectin [6]",Activated clotting time (s) (mean ± SD) [7],"Migration rate (%) (mean ± SD, P) [8]"
N5: SEQ ID NO: 1 with addition of one amino acid at the carboxyl terminal and deletion of positions 1-3 (RFLAKENVTQDAEDNC),0.54 ± 0.1,696.52 ± 127.05,0.69 ± 0.14,738.11 ± 167.03,"0.87 ± 0.03, ****",0.71 ± 0.12,1353.09 ± 422.65,"9.82 ± 3.84,*** %","1.3 ± 0.11,*",72.91 ± 8.04,"14.74 ± 3.23,** %"
N6: SEQ ID NO: 1 with deletion of four amino acids at the carboxyl terminal (positions 15-18) (YRVRFLAKENVTQD),0.61 ± 0.07,538.26 ± 121.04,0.79 ± 0.18,769.35 ± 155.34,"0.81 ± 0.03, ****",0.88 ± 0.19,1361.03 ± 248.72,"11.22 ± 1.65,*** %","1.33 ± 0.04,**",74.09 ± 8.51,"13.01 ± 3.14,** %"
N7: SEQ ID NO: 1 with addition of one amino acid at the carboxyl terminal and substitution A15R (YRVRFLAKENVTQDREDNC),0.74 ± 0.09,671.47 ± 150.71,0.81 ± 0.16,741.86 ± 147.66,"1 ± 0.03, ***",0.81 ± 0.15,1189.39 ± 200.83,"8.95 ± 1.27,*** %","1.36 ± 0.04,*",73.27 ± 8.43,"12.64 ± 2.73,** %"
"N8: SEQ ID NO: 1 with deletion of positions 15-18 and positions 3, 4 and 11 (YRFLAKENTQD)",0.59 ± 0.11,769.54 ± 160.54,0.68 ± 0.11,783.99 ± 69.19,"0.81 ± 0.03, ****",1.02 ± 0.21,1359.06 ± 275.17,"4.74 ± 1.84,*** %","1.33 ± 0.11,*",74 ± 8.92,"9.44 ± 2.09,*** %"
N9: SEQ ID NO: 1 with deletion of positions 15-18 and PEG modification at the amino terminal ({PEG}-YRVRFLAKENVTQD; reading uncertain),0.5 ± 0.09,765.6 ± 105.04,0.72 ± 0.09,781.14 ± 123.66,"1.03 ± 0.05, **",0.82 ± 0.29,1241.9 ± 388.92,"8.96 ± 2.46,*** %","1.33 ± 0.09,*",72.09 ± 8.07,"7.19 ± 2.38,*** %"
N10: SEQ ID NO: 1 with deletion of positions 15-18 and 1-3 and PEG modification at the carboxyl terminal (RFLAKENVTQD-{PEG}; reading uncertain),0.57 ± 0.11,667.99 ± 188.73,0.75 ± 0.07,705.83 ± 182.18,"0.88 ± 0.06, ***",0.86 ± 0.17,1211.62 ± 670.09,"6.71 ± 2.07,*** %","1.3 ± 0.05,**",73.27 ± 7.36,"6.9 ± 1.65,*** %"
N11: SEQ ID NO: 1 with deletion of positions 15-18 and 1-3 and PEG modification at the amino terminal ({PEG}-RFLAKENVTQD; reading uncertain),0.62 ± 0.12,785.02 ± 147.38,0.73 ± 0.08,756.57 ± 204.03,"0.94 ± 0.05, ***",1.3 ± 0.23,1419.28 ± 615.42,"11.54 ± 2.23,*** %","1.39 ± 0.01,*",75.18 ± 7.99,"4.49 ± 1.6,*** %"
